Key:
NCI-H2818 (Mesothelioma) [1] = test: combination Emax (second highest fraction inhibited in the dose matrix, 72 h); higher = more inhibition; extreme values may be limits of the assay
In short: (§1)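 Cell lines grown in DMEM/F12 or RPMI with 10% FBS were plated in 1536-well plates and held 24 hours at 37°C, 5% CO2 before 72 hours of exposure to two-drug dose matrices, with DMSO typically at 0.2%. CellTiter-Glo 2.0 luminescence gave viability, which was converted to inhibition. Vehicle wells were set to 0 and blank wells to 1. Combination Emax is the second-highest inhibition in the matrix, and Bliss excess is the observed combination effect minus the expected EA + EB − EA·EB, where EA and EB are the single-agent effects.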

[2] = system: K-562 (Chronic Myelogenous Leukemia); test: as above
In short: as §1

[3] = system: CAMA-1 (Breast Carcinoma); test: as above
In short: as §1

ES8 (Ewing's Sarcoma) [4] = test: as above
In short: as §1

[5] = system: L-540 (Hodgkin's Lymphoma); test: as above
In short: as §1

WIL2-NS (Non-Cancerous) [6] = test: as above
In short: as §1

[7] = system: SR (Other Blood Carcinomas); test: as above
In short: as §1

WM-115 (Melanoma) [8] = test: as above
In short: as §1

ES1 (Ewing's Sarcoma) [9] = test: as above
In short: as §1

[10] = system: DND-41 (T-Lymphoblastic Leukemia); test: as above
In short: as §1

[11] = system: SW837 (Colorectal Carcinoma); test: as above
In short: as §1

[12] = system: GR-ST (B-Lymphoblastic Leukemia); test: as above
In short: as §1

[13] = system: BL-41 (Burkitt's Lymphoma); test: as above
In short: as §1

[14] = system: SW1417 (Colorectal Carcinoma); test: as above
In short: as §1

[15] = system: MKN28 (Gastric Carcinoma); test: as above
In short: as §1

[16] = system: NCI-H1792 (Lung Adenocarcinoma); test: as above
In short: as §1

[17] = system: BFTC-905 (Bladder Carcinoma); test: as above
In short: as §1

NCI-H2818 (Mesothelioma) [18] = test: Bliss excess, mean over the matrix (fraction); higher = more synergy
In short: as §1

[19] = system: K-562 (Chronic Myelogenous Leukemia); test: as above
In short: as §1

[20] = system: CAMA-1 (Breast Carcinoma); test: as above
In short: as §1

ES8 (Ewing's Sarcoma) [21] = test: as above
In short: as §1

[22] = system: L-540 (Hodgkin's Lymphoma); test: as above
In short: as §1

WIL2-NS (Non-Cancerous) [23] = test: as above
In short: as §1

[24] = system: SR (Other Blood Carcinomas); test: as above
In short: as §1

WM-115 (Melanoma) [25] = test: as above
In short: as §1

ES1 (Ewing's Sarcoma) [26] = test: as above
In short: as §1

[27] = system: DND-41 (T-Lymphoblastic Leukemia); test: as above
In short: as §1

[28] = system: SW837 (Colorectal Carcinoma); test: as above
In short: as §1

[29] = system: GR-ST (B-Lymphoblastic Leukemia); test: as above
In short: as §1

[30] = system: BL-41 (Burkitt's Lymphoma); test: as above
In short: as §1

[31] = system: SW1417 (Colorectal Carcinoma); test: as above
In short: as §1

[32] = system: MKN28 (Gastric Carcinoma); test: as above
In short: as §1

[33] = system: NCI-H1792 (Lung Adenocarcinoma); test: as above
In short: as §1

[34] = system: BFTC-905 (Bladder Carcinoma); test: as above
In short: as §1
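Wherever Bliss excess, mean over the matrix is given: after 72 h of two-drug dosing.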

Row | Compound | combination Emax (NCI-H2818 (Mesothelioma) [1]) | combination Emax [2] | combination Emax [3] | combination Emax (ES8 (Ewing's Sarcoma) [4]) | combination Emax [5] | combination Emax (WIL2-NS (Non-Cancerous) [6]) | combination Emax [7] | combination Emax (WM-115 (Melanoma) [8]) | combination Emax (ES1 (Ewing's Sarcoma) [9]) | combination Emax [10] | combination Emax [11] | combination Emax [12] | combination Emax [13] | combination Emax [14] | combination Emax [15] | combination Emax [16] | combination Emax [17] | Bliss excess (NCI-H2818 (Mesothelioma) [18]) | Bliss excess [19] | Bliss excess [20] | Bliss excess (ES8 (Ewing's Sarcoma) [21]) | Bliss excess [22] | Bliss excess (WIL2-NS (Non-Cancerous) [23]) | Bliss excess [24] | Bliss excess (WM-115 (Melanoma) [25]) | Bliss excess (ES1 (Ewing's Sarcoma) [26]) | Bliss excess [27] | Bliss excess [28] | Bliss excess [29] | Bliss excess [30] | Bliss excess [31] | Bliss excess [32] | Bliss excess [33] | Bliss excess [34]
1 | CS(=O)(=O)CCNCc1ccc(-c2ccc3ncnc(Nc4ccc(OCc5cccc(F)c5)c(Cl)c4)c3c2)o1 [Lapatinib] + Cn1cnc2c(F)c(Nc3ccc(Br)cc3Cl)c(C(=O)NOCCO)cc21 [Selumetinib] (first compound max 10 µM, 7x7, partner max 10 µM) | 0.28 | 0.564 | 0.187 | 0.555 | 0.511 | 0.321 | 0.707 | 0.531 | 0.452 | 0.871 | 0.732 | 0.969 | 0.907 | 0.698 | 0.545 | 0.527 | 0.804 | -0.0295 | -0.0324 | -0.0009 | 0.036 | -0.0147 | 0.0098 | 0.0398 | 0.0205 | 0.0071 | 0.0178 | 0.0194 | -0.03 | -0.0346 | 0.0847 | 0.0057 | 0.0012 | 0.0619
2 | O=C(c1cc(Cc2n[nH]c(=O)c3ccccc23)ccc1F)N1CCN(C(=O)C2CC2)CC1 [Olaparib] + CC1(C)CCC(CN2CCN(c3ccc(C(=O)NS(=O)(=O)c4ccc(NCC5CCOCC5)c([N+](=O)[O-])c4)c(Oc4cnc5[nH]ccc5c4)c3)CC2)=C(c2ccc(Cl)cc2)C1 [Venetoclax] (first compound max 10 µM, 7x7, partner max 1 µM) | 0.158 | 0.172 | 0.211 | 0.964 | 0.558 | 0.46 | 0.567 | 0.241 | 0.841 | 0.29 | 0.112 | 0.526 | 0.318 | 0.124 | 0.105 | 0.109 | 0.193 | -0.0238 | -0.0133 | -0.0106 | -0.0224 | 0.0188 | 0.0261 | 0.0961 | -0.052 | 0.0271 | 0.0243 | -0.0548 | -0.0349 | 0.0183 | -0.0223 | -0.0514 | -0.0302 | -0.0334
3 | O=C(c1cc(Cc2n[nH]c(=O)c3ccccc23)ccc1F)N1CCN(C(=O)C2CC2)CC1 [Olaparib] + CN(CC[C@H](CSC1=CC=CC=C1)NC2=C(C=C(C=C2)S(=O)(=O)NC(=O)C3=CC=C(C=C3)N4CCC(CC4)[C@H](C5=CC=CC=C5C6=CC=C(C=C6)Cl)O)S(=O)(=O)C(F)(F)F)CCO [AZD4320] (first compound max 10 µM, 7x7, partner max 1 µM) | 0.186 | 0.253 | 0.278 | 0.982 | 0.618 | 0.509 | 0.709 | 0.37 | 0.918 | 1 | 0.197 | 0.462 | 0.417 | 0.651 | 0.147 | 0.154 | 0.346 | -0.0504 | -0.0155 | -0.0317 | 0.0463 | -0.0017 | 0.0107 | 0.146 | -0.0631 | 0.0333 | -0.0067 | -0.053 | 0.0012 | 0.0193 | -0.0183 | -0.0269 | -0.0399 | -0.0089
4 | O=C(c1cc(Cc2n[nH]c(=O)c3ccccc23)ccc1F)N1CCN(C(=O)C2CC2)CC1 [Olaparib] + COc1nnc2ccc(N3CCC(c4ccc(OCCN5CCN(C)C(=O)[C@H]5C)cc4)CC3)nn12 [AZD5153] (first compound max 10 µM, 7x7, partner max 1 µM) | 0.325 | 0.412 | 0.484 | 0.966 | 0.619 | 0.818 | 0.626 | 0.295 | 0.882 | 0.69 | 0.484 | 0.776 | 0.648 | 0.448 | 0.362 | 0.527 | 0.6 | -0.0205 | -0.0063 | -0.0417 | 0.0168 | -0.0841 | -0.0128 | 0.0315 | -0.135 | -0.0392 | 0.0275 | -0.0656 | -0.0519 | -0.0634 | -0.0096 | -0.056 | -0.0554 | -0.0614
5 | O=C(c1cc(Cc2n[nH]c(=O)c3ccccc23)ccc1F)N1CCN(C(=O)C2CC2)CC1 [Olaparib] + Cc1c2c(nn1C)CSCc1cc(n(C)n1)CSc1cc(c3ccccc3c1)OCCCc1c(C(=O)O)n(C)c3c-2c(Cl)ccc13 [AZD5991] (first compound max 10 µM, 7x7, partner max 1 µM) | 0.169 | 0.0695 | 0.706 | 0.958 | 1 | 0.299 | 0.943 | 0.146 | 0.98 | 0.174 | 0.136 | 0.515 | 1 | 0.0852 | 0.0875 | 0.201 | 0.178 | -0.0446 | -0.0125 | 0.0094 | -0.0085 | 0.0143 | -0.0181 | 0.0384 | -0.0678 | 0.0139 | -0.0059 | -0.0524 | -0.0352 | 0.0012 | -0.0315 | -0.0498 | -0.041 | -0.0279
6 | N#Cc1cnc(Nc2cc(NC[C@H]3CNCCO3)c(C(F)(F)F)cn2)cn1 [SRA737] + C=CCn1c(=O)c2cnc(Nc3ccc(N4CCN(C)CC4)cc3)nc2n1-c1cccc(C(C)(C)O)n1 [AZD1775] (first compound max 10 µM, partner max 1 µM) | 0.299 | 0.967 | 0.442 | 0.884 | 0.921 | 0.968 | 1 | 0.356 | 0.993 | 0.949 | 0.725 | 0.864 | 1 | 0.537 | 0.504 | 0.864 | 0.777 | -0.0129 | 0.0463 | 0.0672 | 0.144 | 0.0404 | 0.102 | 0.029 | -0.0524 | 0.118 | 0.104 | 0.0157 | 0.0215 | 0.0924 | 0.0127 | 0.0204 | 0.0434 | 0.0526
7 | N#Cc1cnc(Nc2cc(NC[C@H]3CNCCO3)c(C(F)(F)F)cn2)cn1 [SRA737] + Nc1ccn([C@@H]2O[C@H](CO)[C@@H](O)C2(F)F)c(=O)n1 [Gemcitabine] (first compound max 10 µM, 7x7, partner max 0.3 µM) | 0.473 | 0.933 | 0.455 | 1 | 0.962 | 0.983 | 1 | 0.501 | 1 | 0.908 | 0.75 | 0.871 | 1 | 0.685 | 0.575 | 0.922 | 0.868 | 0.0002 | 0.0559 | 0.0294 | 0.0504 | 0.0222 | -0.0384 | 0.0325 | -0.0214 | 0.0419 | -0.0197 | 0.121 | 0.0024 | -0.0522 | 0.0613 | 0.032 | 0.0436 | 0.0034
8 | N#Cc1cnc(Nc2cc(NC[C@H]3CNCCO3)c(C(F)(F)F)cn2)cn1 [SRA737] + O=c1[nH]cc(F)c(=O)[nH]1 [5-Fluorouracil] (first compound max 10 µM, 7x7, partner max 20 µM) | 0.239 | 0.893 | 0.314 | 0.611 | 0.936 | 0.957 | 0.959 | 0.255 | 0.982 | 0.946 | 0.497 | 0.817 | 1 | 0.238 | 0.381 | 0.84 | 0.278 | -0.0232 | -0.0202 | 0.0209 | 0.0404 | -0.0581 | 0.0182 | -0.0128 | -0.0753 | 0.0525 | 0.0434 | 0.0162 | -0.0636 | 0.0042 | 0.0018 | 0.0222 | 0.0523 | 0.0197

— the supplement of paper PMC11061612
